Test results published in patent publication US20230117034A1, “PYRAZOLOTRIAZINES” (Bayer Aktiengesellschaft, priority 2019, published 2023).
pIC50: −log10 of the molar value.

Legend:
[1] = molecular target: T1, CYCLIN K (nuclear staining in CAL-120 cells) (Homo sapiens, UniProt O75909); experiment: CYCLIN K nuclear protein level: immunofluorescence high content analysis (CAL-120); format: cell-based; conditions: 24 h, 50% reduction of nuclear CCNK staining intensity, median, read-out: CYCLIN K degradation IF, DC50-[mol/l] (median)
T1 construct: endogenous in cells; host or cells: CAL-120 human breast cancer cells (DSMZ ACC 459)
Protocol: 8. CYCLIN K nuclear protein level: immunofluorescence High Content Analysis
CAL-120 human breast cancer cells (DSMZ ACC 459) are seeded in 1536-well microtiter plates (800 cells per well) containing 50 nanoL of compounds in Dose-Response. Control wells received DMSO or Example 4. Plates are then incubated for 24 h at 37° C. in an humidified incubator and fixed with 4% PFA for 10 min. Then immunofluorescence (IF) against CYCLIN K (ThermoFisher Scientific CONK Antibody #PA5-85020, rabbit, 1:200 dilution) is performed using standard IF protocols. Cells are then stained with Hoechst 33342 (Life Technologies, H-1399, 0.1 microg/ml) and imaged on an automated confocal microscopy system (e.g. Perkin Elmer Opera Phenix). Nuclear and cytoplasmic intensity as well as the nuclear/cytoplasmic intensity ratio is determined by automated image analysis using custom generated scripts (MetaXpress). Data is then transferred to Genedata Screener software, normalized to DMSO and control and DC50 values (degrading concentration to achieve 50% reduction of nuclear CCNK staining intensity relative to controls) are reported.

CDK2/CycE = molecular target: T2, CDK2/CycE (Homo sapiens, UniProt P24941); experiment: CDK2/CycE kinase assay (TR-FRET, 2 mM ATP); format: biochemical; conditions: 2 mM ATP (high ATP); median; read-out: CDK2/CyclinE, 2 mM ATP (high ATP), IC50 (median)
T2 construct: purchased ProQinase GmbH (Freiburg, Germany); host or cells: insect cells (Sf9)
Text: CDK2/CycE-inhibitory activity of compounds of the present invention was quantified employing the CDK2/CycE TR-FRET assay as described in the following paragraphs.
Recombinant fusion proteins of GST and human CDK2 and of GST and human CycE, expressed in insect cells (Sf9) and purified by Glutathion-Sepharose affinity chromatography, were purchase from ProQinase GmbH (Freiburg, Germany). As substrate for the kinase reaction biotinylated peptide biotin-Ttds-YISPLKSPYKISEG (C-terminus in amid form) was used which can be purchased e.g. form the company JERINI peptide technologies (Berlin, Germany).
For the assay 50 nanoL of a 100 fold concentrated solution of the test compound in DMSO was pipetted into a black low volume 384 well microtiter plate or a black 1536 well microtiter plate (both Greiner Bio-One, Frickenhausen, Germany), 2 microL of a solution of CDK2/CycE in aqueous assay buffer [50 millimol/L Tris/HCl pH 8.0, 10 millimol/L MgCl2, 1.0 millimol/L dithiothreitol, 0.1 millimol/L sodium ortho-vanadate, 0.01% (v/v) Nonidet-P40 (Sigma)] were added and the mixture was incubated for 15 min at 22° C. to allow pre-binding of the test compounds to the enzyme before the start of the kinase reaction. Then the kinase reaction was started by the addition of 3 microL of a solution of adenosine-tri-phosphate (ATP, 3.33 millimol/L=>final conc. in the 5 microL assay volume is 2 millimol/L) and substrate (1.25 micromol/L=>final conc. in the 5 microL assay volume is 0.75 micromol/L) in assay buffer and the resulting mixture was incubated for a reaction time of 25 min at 22° C. The concentration of CDK2/CycE was adjusted depending of the activity of the enzyme lot and was chosen appropriate to have the assay in the linear range, typical concentrations were in the range of 10 ng/ml. The reaction was stopped by the addition of 3 microL of a solution of TR-FRET detection reagents (0.333 micromol/L streptavidine-XL665 [Cisbio Bioassays, Codolet, France] and 1.67 nanomol/L anti-RB(pSer807/pSer8l 1)-antibody from BD Pharmingen [#558389] and 2 nanomol/L LANCE EU-W1024 labeled anti-mouse IgG antibody [Perkin-Elmer, product no. AD0077, as an alternative a Terbium-cryptate-labeled anti-mouse IgG antibody from Cisbio Bioassays can be used]) in an aqueous EDTA-solution (167 millimol/L EDTA, 0.2% (w/v) bovine serum albumin in 100 millimol/L HEPES pH 7.5).
The resulting mixture was incubated 1 h at 22° C. to allow the formation of complex between the phosphorylated biotinylated peptide and the detection reagents. Subsequently the amount of phosphorylated substrate was evaluated by measurement of the resonance energy transfer from the Eu-chelate to the streptavidine-XL. Therefore, the fluorescence emissions at 620 nm and 665 nm after excitation at 350 nm was measured in a TR-FRET reader, e.g. a Pherastar (BMG Labtechnologies, Offenburg, Germany) or a Viewlux (Perkin-Elmer). The ratio of the emissions at 665 nm and at […] was taken as the measure for the amount of phosphorylated substrate. The data were normalised (enzyme reaction without inhibitor=0% inhibition, all other assay components but no enzyme=100% inhibition).

[2] = tested on: CAL-120, human breast adenocarcinoma cells; experiment: Proliferation assay CAL-120 (crystal violet, 4 days); format: cell-based; conditions: Homo sapiens, CAL-120, 96 h, CAL-120 cells, median, read-out: Prolif-CAL-120, IC50-[mol/l] (median)
Protocol: Human tumour cells were originally obtained from the American Type Culture Collection (ATCC), or from the Deutsche Sammlung von Mikroorganismen und Zellkulturen (DSMZ, German Collection of Microorganisms and Cell Cultures). Cultivated tumour cells (CAL-120, human breast adenocarcinoma cells, DSMZ ACC-459; MDA-MB-231, human breast cancer cells, ATCC HTB-26) were plated at a density of 4,000 cells/well in a 96-well multititer plate in 200 microL of their respective growth medium supplemented 10% fetal calf serum. After 24 hours, the cells of one plate (zero-point plate) were stained with crystal violet (see below), while the medium of the other plates was supplemented with the test substances in various concentrations (0 micromol/L, as well as in the range of 0.01-10 micromol/L; the final concentration of the solvent dimethyl sulfoxide was adjusted to 0.1%) using a Tecan HP D300 Digital Dispenser. The cells were incubated for 4 days in the presence of test substances. Cell proliferation was determined by staining the cells with crystal violet: the cells were fixed by adding 20 microL/measuring point of an 11% glutaric aldehyde solution for 15 minutes at room temperature. After three washing cycles of the fixed cells with water, the plates were dried at room temperature. The cells were stained by adding 100 microL/measuring point of a 0.1% crystal violet solution (pH 3.0). After three washing cycles of the stained cells with water, the plates were dried at room temperature. The dye was dissolved by adding 100 microL/measuring point of a 10% acetic acid solution. The extinction was determined by photometry at a wavelength of 595 nm. The change of cell number, in percent, was calculated by normalization of the measured values to the extinction values of the zero-point plate (=0%) and the extinction of the untreated (0 μM) cells (=100%). The IC50 values (inhibitory concentration at 50% of maximal effect) were determined by means of a 4 parameter fit.

T1 sequence (O75909 whole entry): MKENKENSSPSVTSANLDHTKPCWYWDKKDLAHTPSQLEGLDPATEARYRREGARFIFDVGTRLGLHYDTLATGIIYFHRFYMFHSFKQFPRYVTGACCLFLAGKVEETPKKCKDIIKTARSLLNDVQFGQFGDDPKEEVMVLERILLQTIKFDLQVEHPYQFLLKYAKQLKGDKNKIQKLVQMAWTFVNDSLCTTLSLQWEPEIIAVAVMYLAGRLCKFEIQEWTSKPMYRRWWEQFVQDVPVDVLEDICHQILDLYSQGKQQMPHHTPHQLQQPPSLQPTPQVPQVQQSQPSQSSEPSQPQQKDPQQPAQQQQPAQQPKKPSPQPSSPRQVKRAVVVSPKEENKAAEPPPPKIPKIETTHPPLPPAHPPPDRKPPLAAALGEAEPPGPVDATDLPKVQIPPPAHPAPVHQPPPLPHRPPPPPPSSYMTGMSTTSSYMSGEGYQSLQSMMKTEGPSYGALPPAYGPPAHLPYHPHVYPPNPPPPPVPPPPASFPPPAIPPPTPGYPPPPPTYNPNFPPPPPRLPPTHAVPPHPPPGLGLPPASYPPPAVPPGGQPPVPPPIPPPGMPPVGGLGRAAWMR
T1 sequence (Q9NYV4 whole entry partner): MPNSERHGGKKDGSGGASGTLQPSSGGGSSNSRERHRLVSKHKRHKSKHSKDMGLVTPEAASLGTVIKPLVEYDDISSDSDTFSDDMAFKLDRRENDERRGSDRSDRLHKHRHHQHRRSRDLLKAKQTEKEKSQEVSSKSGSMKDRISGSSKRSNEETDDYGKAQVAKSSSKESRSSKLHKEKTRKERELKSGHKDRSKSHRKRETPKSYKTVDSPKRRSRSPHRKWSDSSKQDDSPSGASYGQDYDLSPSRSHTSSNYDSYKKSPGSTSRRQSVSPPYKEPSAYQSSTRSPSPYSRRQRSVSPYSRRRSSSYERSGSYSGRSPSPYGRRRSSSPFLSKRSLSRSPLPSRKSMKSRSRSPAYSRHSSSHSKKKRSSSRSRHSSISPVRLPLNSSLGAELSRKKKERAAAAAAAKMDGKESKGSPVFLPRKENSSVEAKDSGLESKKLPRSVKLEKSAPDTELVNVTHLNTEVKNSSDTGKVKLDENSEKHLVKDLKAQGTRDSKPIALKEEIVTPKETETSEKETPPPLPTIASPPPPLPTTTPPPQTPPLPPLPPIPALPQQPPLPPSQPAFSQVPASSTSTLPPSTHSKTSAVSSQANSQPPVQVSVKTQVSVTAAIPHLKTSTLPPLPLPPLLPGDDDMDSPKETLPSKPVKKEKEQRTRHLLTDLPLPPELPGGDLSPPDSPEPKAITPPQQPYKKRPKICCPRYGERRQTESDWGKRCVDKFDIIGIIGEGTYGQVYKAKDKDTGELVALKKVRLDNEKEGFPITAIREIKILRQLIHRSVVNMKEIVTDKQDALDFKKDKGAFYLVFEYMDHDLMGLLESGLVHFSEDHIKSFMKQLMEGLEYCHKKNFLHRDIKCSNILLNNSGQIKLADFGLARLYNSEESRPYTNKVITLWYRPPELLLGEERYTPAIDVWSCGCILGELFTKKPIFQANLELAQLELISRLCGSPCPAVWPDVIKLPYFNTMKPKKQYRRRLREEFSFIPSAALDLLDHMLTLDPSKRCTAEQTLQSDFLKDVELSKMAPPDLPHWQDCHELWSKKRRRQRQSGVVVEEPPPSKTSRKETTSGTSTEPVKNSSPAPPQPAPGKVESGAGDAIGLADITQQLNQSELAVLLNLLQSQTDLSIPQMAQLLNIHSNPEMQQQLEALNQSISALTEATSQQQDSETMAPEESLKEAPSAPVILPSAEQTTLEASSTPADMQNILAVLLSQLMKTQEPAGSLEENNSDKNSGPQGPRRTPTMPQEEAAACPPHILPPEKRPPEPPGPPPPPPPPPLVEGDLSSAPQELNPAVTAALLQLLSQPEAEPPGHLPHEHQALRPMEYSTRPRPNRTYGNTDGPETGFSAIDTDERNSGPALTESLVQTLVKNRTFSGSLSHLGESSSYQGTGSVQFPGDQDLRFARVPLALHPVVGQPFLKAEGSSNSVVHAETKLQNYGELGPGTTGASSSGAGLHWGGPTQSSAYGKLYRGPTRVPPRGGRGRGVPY

SMILES	DC50 [1] [nM]	pIC50 (CDK2/CycE)	pIC50 [2]
Brc1cnn2c(NCc3nc4ccccc4[nH]3)nc(N3CCOCC3)nc12 [Example 4, N-[(1H-benzimidazol-2-yl)methyl]-8-bromo-2-(morpholin-4-yl)pyrazolo[1,5-a][1,3,5]triazin-4-amine]	2.46	5.64	7.92
CC(C)c1cnn2c(NCc3nc4ccccc4[nH]3)nc(N(C)CC(C)(C)O)nc12 [Example 5, 1-{[4-{[(1H-benzimidazol-2-yl)methyl]amino}-8-(propan-2-yl)pyrazolo[1,5-a][1,3,5]triazin-2-yl](methyl)amino}-2-methylpropan-2-ol]	1.95	5.87	
CC(C)c1cnn2c(NCc3nc4ccccc4[nH]3)nc(N3CCOC[C@@H]3C)nc12 [Example 6, N-[(1H-benzimidazol-2-yl)methyl]-2-[(3S)-3-methylmorpholin-4-yl]-8-(propan-2-yl)pyrazolo[1,5-a][1,3,5]triazin-4-amine]	2.36	5.70	
CC(C)c1cnn2c(NCc3nc4ccccc4[nH]3)nc(N3CCCOCC3)nc12 [Example 8, N-[(1H-benzimidazol-2-yl)methyl]-2-(1,4-oxazepan-4-yl)-8-(propan-2-yl)pyrazolo[1,5-a][1,3,5]triazin-4-amine]	26.9	4.95	
CC(C)c1cnn2c(NCc3nc4ccccc4[nH]3)nc(NCC(C)(C)O)nc12 [Example 10, 1-{[4-{[(1H-benzimidazol-2-yl)methyl]amino}-8-(propan-2-yl)pyrazolo[1,5-a][1,3,5]triazin-2-yl]amino}-2-methylpropan-2-ol]	3.6	6.06	
Clc1ccccc1-c1cnc(CNc2nc(N3CCOCC3)nc3c(Br)cnn23)[nH]1 [Example 96, 8-bromo-N-{[5-(2-chlorophenyl)-1H-imidazol-2-yl]methyl}-2-(morpholin-4-yl)pyrazolo[1,5-a][1,3,5]triazin-4-amine]	10.7	5.75	7.52
Brc1cnn2c(NCc3nc4ccccc4[nH]3)nc(N3C[C@H]4C[C@@H]3CO4)nc12 [Example 102, N-[(1H-benzimidazol-2-yl)methyl]-8-bromo-2-[(1R,4R)-2-oxa-5-azabicyclo[2.2.1]heptan-5-yl]pyrazolo[1,5-a][1,3,5]triazin-4-amine]	0.517	5.62	7.57
CCN1CCN(c2nc(NCc3nc4ccccc4[nH]3)n3ncc(Br)c3n2)CC1 [Example 137, N-[(1H-benzimidazol-2-yl)methyl]-8-bromo-2-(4-ethylpiperazin-1-yl)pyrazolo[1,5-a][1,3,5]triazin-4-amine]	4.68		6.96
CN1CCN(c2nc(NCc3nc4ccccc4[nH]3)n3ncc(Br)c3n2)C(CO)C1 (stereo not shown) [Example 155, [1-[4-(1H-benzimidazol-2-ylmethylamino)-8-bromo-pyrazolo[1,5-a][1,3,5]triazin-2-yl]-4-methyl-piperazin-2-yl]methanol]		5.03	7.12
COc1ccc2[nH]c(CNc3nc(N4CCN(C)CC4)nc4c(Br)cnn34)nc2c1 [Example 161, 8-bromo-N-[(5-methoxy-1H-benzimidazol-2-yl)methyl]-2-(4-methylpiperazin-1-yl)pyrazolo[1,5-a][1,3,5]triazin-4-amine]	1.3		8.48
O=S1(=O)CCN(c2nc(NCc3nc4ccccc4[nH]3)n3ncc(Br)c3n2)CC1 [Example 166, 4-(4-{[(1H-benzimidazol-2-yl)methyl]amino}-8-bromopyrazolo[1,5-a][1,3,5]triazin-2-yl)-1 lambda^6-thiomorpholine-1,1-dione]		5.33	7.70

The remaining lines, values ahead:

DC50 [1] [nM]	pIC50 (CDK2/CycE)	pIC50 [2]	SMILES
0.467	5.49	8.29	Fc1cccc2[nH]c(CNc3nc(N4CCOCC4)nc4c(Br)cnn34)nc12 [Example 97, 8-bromo-N-[(4-fluoro-1H-benzimidazol-2-yl)methyl]-2-(morpholin-4-yl)pyrazolo[1,5-a][1,3,5]triazin-4-amine]
28.1	5.69	6.94	Cc1ccc(-c2nnc(CNc3nc(N4CCOCC4)nc4c(Br)cnn34)[nH]2)cc1F [Example 98, 8-bromo-N-{[5-(3-fluoro-4-methylphenyl)-4H-1,2,4-triazol-3-yl]methyl}-2-(morpholin-4-yl)pyrazolo[1,5-a][1,3,5]triazin-4-amine]
3.05	5.75	7.26	Fc1ccc(-c2nnc(CNc3nc(N4CCOCC4)nc4c(Br)cnn34)[nH]2)cc1F [Example 99, 8-bromo-N-{[5-(3,4-difluorophenyl)-4H-1,2,4-triazol-3-yl]methyl}-2-(morpholin-4-yl)pyrazolo[1,5-a][1,3,5]triazin-4-amine]
7.4	5.74	7.22	Fc1cc(-c2nnc(CNc3nc(N4CCOCC4)nc4c(Br)cnn34)[nH]2)cc(F)c1F [Example 100, 8-bromo-2-(morpholin-4-yl)-N-{[5-(3,4,5-trifluorophenyl)-4H-1,2,4-triazol-3-yl]methyl}pyrazolo[1,5-a][1,3,5]triazin-4-amine]
0.892	5.41	8.39	Fc1ccc2[nH]c(CNc3nc(N4CCOCC4)nc4c(Br)cnn34)nc2c1 [Example 101, 8-bromo-N-[(5-fluoro-1H-benzimidazol-2-yl)methyl]-2-(morpholin-4-yl)pyrazolo[1,5-a][1,3,5]triazin-4-amine]
